The results in this text go back to patent US4515942A, “Antibiotics KA-6606 XII, XIII, XV, XVI and XVII” (Kowa Company, Ltd., priority 1980, dated 1985).

For series [1], the system named is Bacillus subtilis ATCC 6633. In words: disc plate method (Table 1). Type of series: cell-based. The settings on record: 1 mg/ml; paper disc 8 mm; Bacillus subtilis ATCC 6633 (Table 1). The text has this: (§1) Tables 1 and 2 show the antibacterial spectra of the antibiotics KA-6606 VII to KA-6606 XVII against various bacteria, determined by the disc plate method, in comparison with the KA-6606 II substance. Each of the chemicals is used as impregnated in a paper disc having a diameter of 8 mm.

In series [2] the test system is Escherichia coli NIHJ. In words: disc plate method (Table 1). It counts as cell-based. The settings on record: 1 mg/ml, paper disc 8 mm.
Excerpt: as §1

The test system of series [3] is Klebsiella pneumoniae. As to the kind of experiment: disc plate method (Table 1). Type of series: cell-based. The following applies: 1 mg/ml, paper disc 8 mm.
Excerpt: as §1

The test system of series [4] is Proteus inconstans. In words: disc plate method (Table 1). Type of series: cell-based. The settings on record: 1 mg/ml; paper disc 8 mm; Proteus inconstans (Table 1).
Excerpt: as §1

Series [5] has as its system Proteus vulgaria. As to the kind of experiment: disc plate method (Table 1). It counts as cell-based. The settings on record: 1 mg/ml, paper disc 8 mm.
Excerpt: as §1

Series [6] has as its system Pseudomonas aeruginosa. In words: disc plate method (Table 1). Type of series: cell-based. The following applies: 1 mg/ml, paper disc 8 mm, read-out: Inhibition zone (diameter).
Excerpt: as §1

The subject of series [7] is Serratia marcescens. In words: disc plate method (Table 1). Type of series: cell-based. The settings on record: 1 mg/ml, paper disc 8 mm.
Excerpt: as §1

Series [8] concerns Staphylococcus aureus 209P. In words: disc plate method (Table 1). The following applies: 1 mg/ml, paper disc 8 mm. Type of series: cell-based.
Excerpt: as §1

Series [9] is described as follows: Solubility in solvents. It counts as physicochemical.
Series [10] in a line: Stability. Type of series: physicochemical. The following applies: pH range in which stable.

On to `CNC1C(OC)CC(N)C(OC2OC(C(C)N)CCC2N)C1O` (stereo not shown) [KA-6606 VIII], for which the “Inhibition zone (diameter)” value in series [1] is 26.2 mm; in series [2] it was 21.9 mm; in series [3], 18.8 mm; in series [4], 18.9 mm; in [5], 23.3 mm; in series [7] it was 19.7 mm. In series [8], the “Inhibition zone (diameter)” value was found to be 13.5 mm. Also, the zone of inhibition at 1000 µg/mL in series [6] came to 17.3 mm. The “Solubility in solvents: chloroform” value in [9] (chloroform) was “Insoluble”. Besides, in series [9] (ethyl acetate), the “Solubility in solvents: ethyl acetate” value is given as “Insoluble”. Besides, in series [9] (methanol), the “Solubility in solvents: methanol” value is “Easily soluble”. In addition, the “Solubility in solvents: water” value in [9] (water) is reported as “Easily soluble”. Also, in series [10], the “Stability (stable at pH)” value is 2-10 pH.
